Values after ≈ are worked out from the molar mass of the structure shown.
Tests used:
[1] = system: Mycobacterium tuberculosis; test: Antitubercular activity against Mycobacterium tuberculosis H37Rv incubated for 7 days under anaerobic condition measured by broth microdilution method; assay type: functional; settings: 168 h
[2] = Inhibition of recombinant Mycobacterium tuberculosis glutamine-dependent NadE using NAAD as substrate assessed as residual activity preincubated for 20 mins followed L-glutamine addition measured over 40 mins by spectrophotometric based PNP enzyme coupled assay
[3] = system: Mycobacterium tuberculosis; test: Antitubercular activity against Mycobacterium tuberculosis H37Rv ATCC 27294 grown under Middlebrook 7H9 broth after 2 weeks by microscopic analysis; assay type: functional; settings: H37Rv ATCC 27294, 336 h
[4] = system: Mycobacterium tuberculosis; test: Antitubercular activity against NRP-2 stage of Mycobacterium tuberculosis H37Rv ATCC 27294 grown under glycerol free dubos broth after 7 days by microscopic analysis; assay type: functional; settings: H37Rv ATCC 27294, 168 h
[5] = Inhibition of recombinant Mycobacterium tuberculosis NH3-dependent NadE using NAAD as substrate assessed as residual activity preincubated for 20 mins followed NH4Cl addition measured over 40 mins by spectrophotometric based PNP enzyme coupled assay
Bacillus anthracis = test: Antibacterial activity against Bacillus anthracis Sterne spore forms measured every hour for 5 hrs by broth microdilution method; assay type: functional
[6] = Inhibition of Bacillus anthracis NadE using guanidine-HCl as substrate after 10 mins by HPLC analysis

| SMILES | MIC [1] [µM] | IC50 [2] [µM] | MIC [3] [µg/mL] | MIC [4] [µg/mL] | IC50 [5] [µM] | MIC (Bacillus anthracis) [µM] | IC50 [6] [µM] |
| --- | --- | --- | --- | --- | --- | --- | --- |
| COC(=O)c1cc2cc(OCc3ccccc3)ccc2n1CCCCCCCOC(=O)Cc1ccc([N+](C)(C)C)cc1 | 20 | – | – | – | – | – | – |
| O=C(Nc1ccc([N+](=O)[O-])cc1)Nc1ccc(S(=O)(=O)Nc2ccc(I)cc2)cc1 | – | 370 | 37 (≈ 68.7 µM) | 50 (≈ 92.9 µM) | – | – | – |
| COc1ccc(NS(=O)(=O)c2ccc(NC(=O)Nc3ccc([N+](=O)[O-])cc3)cc2)cc1 | – | 130 | 25 (≈ 56.5 µM) | 50 (≈ 113 µM) | > 200 | – | – |
| O=C(Nc1ccc([N+](=O)[O-])cc1)Nc1ccc(S(=O)(=O)Nc2cccc(C(F)(F)F)c2)cc1 | – | 130 | 37 (≈ 77 µM) | 50 (≈ 104 µM) | > 200 | – | – |
| O=C(Nc1ccc([N+](=O)[O-])cc1)Nc1ccc(S(=O)(=O)Nc2cccc([N+](=O)[O-])c2)cc1 | – | 170 | 25 (≈ 54.7 µM) | 12.5 (≈ 27.3 µM) | – | – | – |
| O=C(Nc1ccc([N+](=O)[O-])cc1)Nc1ccc(S(=O)(=O)Nc2ccc([N+](=O)[O-])cc2)cc1 | – | 90 | 37 (≈ 80.9 µM) | 25 (≈ 54.7 µM) | > 200 | – | – |
| O=C(Nc1ccc([N+](=O)[O-])cc1)Nc1ccc(S(=O)(=O)Nc2ccc(O)cc2)cc1 | – | 160 | 37 (≈ 86.4 µM) | 50 (≈ 117 µM) | – | – | – |
| O=C(Nc1ccc([N+](=O)[O-])cc1)Nc1ccc(S(=O)(=O)Nc2ccc(Cl)cc2)cc1 | – | 520 | 25 (≈ 55.9 µM) | 37 (≈ 82.8 µM) | – | – | – |
| O=C(Nc1ccc([N+](=O)[O-])cc1)Nc1ccc(S(=O)(=O)Nc2ccc(F)cc2)cc1 | – | 170 | 19 (≈ 44.1 µM) | 25 (≈ 58.1 µM) | – | – | – |
| O=C(Nc1ccc([N+](=O)[O-])cc1)Nc1ccc(S(=O)(=O)Nc2ccc([N+](=O)[O-])c(C(F)(F)F)c2)cc1 | – | 190 | 100 (≈ 190 µM) | 50 (≈ 95.2 µM) | – | – | – |
| N#Cc1ccc(NS(=O)(=O)c2ccc(NC(=O)Nc3ccc([N+](=O)[O-])cc3)cc2)cc1 | – | 190 | 37 (≈ 84.6 µM) | 37 (≈ 84.6 µM) | – | – | – |
| NCc1ccc(S(=O)(=O)Nc2ccc(NC(=O)Nc3cccc([N+](=O)[O-])c3)cc2)cc1 | – | – | – | – | – | > 240 | 15.3 |
| O=C(Nc1ccc([N+](=O)[O-])cc1)Nc1ccc(S(=O)(=O)Nc2ccccc2)cc1 | – | 125 | 75 (≈ 182 µM) | 12.5 (≈ 30.3 µM) | > 200 | – | – |
| O=C(Nc1ccc([N+](=O)[O-])cc1)Nc1ccc(S(=O)(=O)Nc2ccc(Cl)c(Cl)c2)cc1 | – | 1000 | 25 (≈ 51.9 µM) | 50 (≈ 104 µM) | – | – | 6.4 |
| NNC(=O)c1ccncc1 [ISONIAZID] | – | – | 0.05 (≈ 0.365 µM) | 0.03 (≈ 0.219 µM) | – | – | – |
